Measurements taken from publication PMC6300978 (Chemico-biological interactions, 2015).
Values joined by “and” are separate entries in the source; they are usually repeats but may differ in a detail not shown here. Equal entries are not always repeated.

What was measured:
recombinant human UGT1A9 = target: T1, recombinant human UGT1A9 (Homo sapiens, UniProt O60656); test: GA glucuronidation by recombinant UGT1A9; assay type: in vitro ADME; conditions: UGT1A9, whole range of substrate concentrations
T1 sequence (O60656 26-530): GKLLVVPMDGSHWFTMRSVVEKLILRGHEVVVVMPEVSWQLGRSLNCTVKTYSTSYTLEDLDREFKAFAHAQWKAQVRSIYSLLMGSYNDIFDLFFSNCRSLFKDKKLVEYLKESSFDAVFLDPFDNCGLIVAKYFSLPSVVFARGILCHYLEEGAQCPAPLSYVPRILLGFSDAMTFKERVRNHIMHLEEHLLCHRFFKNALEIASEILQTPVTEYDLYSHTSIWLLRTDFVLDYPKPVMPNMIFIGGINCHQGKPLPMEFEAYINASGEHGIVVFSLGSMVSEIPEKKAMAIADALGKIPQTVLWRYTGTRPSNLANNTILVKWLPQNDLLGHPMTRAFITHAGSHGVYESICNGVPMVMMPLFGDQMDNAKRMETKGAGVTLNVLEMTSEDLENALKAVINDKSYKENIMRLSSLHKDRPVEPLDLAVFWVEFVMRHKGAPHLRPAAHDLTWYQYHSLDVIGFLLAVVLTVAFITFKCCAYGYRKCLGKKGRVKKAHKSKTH

UGT1A3 = target: T2, UGT1A3 (Homo sapiens, UniProt P35503); test: GA glucuronidation kinetics by recombinant UGT1A3; assay type: in vitro ADME; conditions: recombinant human UGT1A3, pH 7.4
T2 sequence (P35503 29-534): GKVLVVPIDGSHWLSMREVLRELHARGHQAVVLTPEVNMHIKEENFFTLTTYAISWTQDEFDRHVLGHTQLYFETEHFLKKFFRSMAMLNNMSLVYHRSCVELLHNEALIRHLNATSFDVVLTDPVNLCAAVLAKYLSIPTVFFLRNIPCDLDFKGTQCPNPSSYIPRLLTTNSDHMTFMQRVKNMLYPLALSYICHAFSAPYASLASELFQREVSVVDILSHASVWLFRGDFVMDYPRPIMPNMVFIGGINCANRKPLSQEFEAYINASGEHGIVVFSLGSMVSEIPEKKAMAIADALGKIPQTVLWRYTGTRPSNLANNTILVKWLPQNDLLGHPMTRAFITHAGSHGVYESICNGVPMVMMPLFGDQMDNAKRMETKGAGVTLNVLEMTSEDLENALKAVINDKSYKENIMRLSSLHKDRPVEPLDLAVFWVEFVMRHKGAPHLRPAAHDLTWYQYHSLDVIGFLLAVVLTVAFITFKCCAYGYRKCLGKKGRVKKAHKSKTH

[1] = GA glucuronidation kinetics in beagle dog liver microsomes; assay type: in vitro ADME, beagle dogs; conditions: DLM; for microsomal CLint / Km at 30 min: beagle, dog; for microsomal CLint: dog liver microsomes; for Km at 30 min: liver microsomes, pH 7.4, Km (KS), Michaelis–Menten
[2] = GA glucuronidation kinetics in human intestinal microsomes; assay type: in vitro ADME; conditions: for microsomal CLint: human intestinal microsomes
UGT1A10 = target: T3, UGT1A10 (Homo sapiens, UniProt Q9HAW8); test: GA glucuronidation kinetics by recombinant UGT1A10; assay type: in vitro ADME
T3 sequence (Q9HAW8 26-530): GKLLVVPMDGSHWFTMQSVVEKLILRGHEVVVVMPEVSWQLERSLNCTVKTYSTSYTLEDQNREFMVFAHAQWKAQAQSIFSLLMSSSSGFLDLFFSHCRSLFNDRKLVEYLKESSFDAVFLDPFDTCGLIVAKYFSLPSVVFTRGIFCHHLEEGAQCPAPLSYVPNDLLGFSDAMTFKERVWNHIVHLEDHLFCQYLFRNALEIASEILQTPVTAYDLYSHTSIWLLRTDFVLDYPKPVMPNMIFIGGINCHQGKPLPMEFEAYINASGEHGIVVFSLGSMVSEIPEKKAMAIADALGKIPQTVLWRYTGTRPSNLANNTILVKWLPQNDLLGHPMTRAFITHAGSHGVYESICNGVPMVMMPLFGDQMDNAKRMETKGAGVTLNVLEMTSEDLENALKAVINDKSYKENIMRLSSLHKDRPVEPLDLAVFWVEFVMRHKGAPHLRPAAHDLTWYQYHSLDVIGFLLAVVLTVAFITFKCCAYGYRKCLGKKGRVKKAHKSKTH

[3] = GA glucuronidation kinetics in rat liver microsomes; assay type: in vitro ADME, Sprague-Dawley rats; conditions: for microsomal CLint: rat liver microsomes

GA glucuronidation activity (recombinant human UGT1A9): < 0.04 nmol/min/mg | microsomal CLint (UGT1A3): 29 µL/min/mg | microsomal CLint ([1]; pH 7.4, Clint, M1 formation): 71 µL/min/mg | microsomal CLint ([1]; pH 7.4, Clint, M2 formation): 214 µL/min/mg | microsomal CLint ([1]; pH 7.4, Cltotal, M1 + M2): 285 µL/min/mg | Km at 30 min ([1]; M1 formation): 34 ± 12 µM | Km at 30 min ([1]; M2 formation): 29 ± 12 µM | Clint of HIM relative to HLM ([2]; GA glucuronidation, Table 2): more than 100 fold | microsomal CLint ([2]; both, human, pH 7.4, Clint, HIM, M2 formation): 2010 µL/min/mg | microsomal CLint ([2]; both, human, pH 7.4, Clint, HIM, M2 formation (text)): 2000 µL/min/mg | microsomal CLint ([2]; both, human, pH 7.4, Cltotal, HIM): 2010 µL/min/mg | Km at 20 min ([2]; both, human, intestinal microsomes, pH 7.4): 8.3 ± 3.5 µM | KSI (UGT1A10; UGT1A10, M2 formation): 36 ± 11 µM | microsomal CLint (UGT1A10; human, recombinant UGT1A10, pH 7.4): 18 µL/min/mg | Km at 20 min ([3]; male, Sprague-Dawley, rat, liver microsomes, pH 7.4): 3.9 ± 1.9 µM | microsomal CLint ([3]; male, Sprague-Dawley, rat, pH 7.4, Clint, RLM, M2 formation): 4100 µL/min/mg | microsomal CLint ([3]; male, Sprague-Dawley, rat, pH 7.4, Clint, RLM, M2 formation (text)): 4000 µL/min/mg | microsomal CLint ([3]; male, Sprague-Dawley, rat, pH 7.4, Cltotal, RLM): 4100 µL/min/mg
Structure (SMILES): CC1(C)C=Cc2c(ccc3c2OC[C@@H](c2ccc(O)cc2O)C3)O1 [GA, glabridin]
Vmax ([1]; M1 formation): 2.4 ± 0.5 nmol/min/mg | Vmax ([1]; M2 formation): 6.2 ± 1.3 nmol/min/mg | Vmax ([2]; HIM, M2 formation): 16.7 ± 7.4 nmol/min/mg | Vmax (UGT1A10; UGT1A10, M2 formation): 0.50 ± 0.10 nmol/min/mg and 0.5 ± 0.1 nmol/min/mg | KSI ([3]; RLM, M2 formation): 7.6 ± 3.0 µM | Vmax ([3]; RLM, M2 formation): 16 ± 5 nmol/min/mg
